“Also recorded” adds a separate entry of the source.
Tested on: human skin explants
Experiment: Exfoliating action of plant extracts on human skin explants ex vivo (morphology of the stratum corneum)
Type: cell-based
Details: for Exfoliating activity, Result: day 4, compared to control group TJ
Protocol: Particular attention is paid to the morphology of the stratum corneum.
Activity is assessed by examination of the morphology.
The explants were stored in BEM (BIO-EC's Explants Medium) at 37° C. in a humid atmosphere enriched with 5% C02.
The test product is applied topically at a rate of 2 μl per explant, using a spatula to spread, on days 0, 2 and 3.
On day 0, the 3 explants of batch T0 were removed and cut into 2. One portion was fixated in a buffered formalin solution and the second part was frozen at −80° C. At Day 4, the 3 explants of each batch were taken and treated in the same manner.
After a fixation of 24 hours in buffered formalin, the samples were dried and soaked in paraffin using an automatic dehydration system, Leica TP 1020. They were embedded in a resin using a coating system Leica EG 1160.
Slices of 5 microns have been produced using a microtome type Minot Leica RM 2125 and mounted on microscope slides type histological SuperFrost®.
Microscopic observations were performed by optical microscopy, using a Leica Orthoplan microscope and an Olympus BX43. The shots were made with an Olympus DP72 camera and Cell ^ D software.
Paraffin sections were stained with Masson's trichrome stain, Goldner variant. Microscopic examination was carried out to assess the general morphology of the dermal and epidermal structures.
Particular attention was paid to the morphology of the Stratum Corneum.

In the case of `O=C(O)c1ccccc1O` [Product P1, Natural Salicylic Acid], the “exfoliation of the upper layers of the stratum corneum (morphology)” value (“exfoliation of the upper layers … (morphology)” below) (0.25% (C3), day 4) is reported as “appeared normal; also recorded: does not present a significant exfoliating activity”, the “exfoliation of the upper layers … (morphology)” value (0.5% (C2), day 4) is reported as “appeared normal; also recorded: does not present a significant exfoliating activity” and the “exfoliation of the upper layers … (morphology)” value (1% (C1), day 4) is reported as “light exfoliation of the upper layers”. For the same molecule, the “number of cell layers of the SC” value (1% (C1), day 4) was “slightly reduced” and the “Exfoliating activity, Result” value (1% (C1)) was 4.
For `CC(O)C(=O)O` (stereo not drawn) [Product P3, Lactic acid], the “exfoliation of the upper layers … (morphology)” value (0.25% (C3), day 4) was “appeared normal; also recorded: no appreciable exfoliating activity”, the “exfoliation of the upper layers … (morphology)” value (0.5% (C2), day 4) was “very light exfoliation of the upper layers” and the “Exfoliating activity, Result” value (0.5% (C2)) was 2. For the same molecule, the “exfoliation of the upper layers … (morphology)” value (1% (C1), day 4) was “light exfoliation of the upper layers”, the “number of cell layers of the SC” value (1% (C1), day 4) was “slightly reduced” and the “Exfoliating activity, Result” value (1% (C1)) was 4.
In the case of `O=C(O)CO` [Product P4, glycolic acid], the “exfoliation of the upper layers … (morphology)” value (0.25% (C3), day 4) is reported as “appeared normal; also recorded: no appreciable exfoliating activity”, the “exfoliation of the upper layers … (morphology)” value (0.5% (C2), day 4) is reported as “very light and irregular exfoliation of the upper layers” and the “Exfoliating activity, Result” value (0.5% (C2)) is reported as 3. For the same molecule, the “exfoliation of the upper layers … (morphology)” value (1% (C1), day 4) was “light and irregular exfoliation of the upper layers; also recorded: slight irregular exfoliation” and the “Exfoliating activity, Result” value (1% (C1)) was 4.
`O=C(O)C(Cl)(Cl)Cl` [Product P6, trichloroacetic acid] was tested, and the “exfoliation of the upper layers … (morphology)” value (0.25% (C3), day 4) was “appeared normal; also recorded: no significant activity in the exfoliation”, the “exfoliation of the upper layers … (morphology)” value (0.5% (C2), day 4) was “light and irregular exfoliation of the upper layers; also recorded: uneven exfoliation” and the “number of cell layers of the SC” value (0.5% (C2), day 4) was “slightly reduced”. The “Exfoliating activity, Result” value (0.5% (C2)) was 4, the “exfoliation of the upper layers … (morphology)” value (1% (C1), day 4) was “moderate exfoliation of the upper layers” and the “number of cell layers of the SC” value (1% (C1), day 4) was “moderately reduced”. The “Exfoliating activity, Result” value (1% (C1)) was 6 and the “exfoliating activity, comparison of products” value (especially samples of 1% concentration, day 4) was “best exfoliating activity”.

Reference: US11033597B2, “Dermatological kit comprising compositions based on hibiscus flower and buriti oil” (MEDICAL BRANDS RESEARCH B.V., priority 2014, dated 2021)
